In patent publication US4497742A, “Isomerization of β-lactam compounds” (Takeda Chemical Industries, Ltd., priority 1981, dated 1985):
Counter-ions that a name gives are not always drawn. Like-named read-outs stand apart in the source and are kept apart here.

Columns and labels:
[1] = test system: Escherichia coli NIHJ J2C; assay: Antimicrobial spectrum (MIC), Escherichia coli NIHJ J2C; assay type: cell-based; settings: NIHJJ2C
[2] = test system: Proteus vulgaris IFO 3988; assay: Antimicrobial spectrum (MIC), Proteus vulgaris IFO 3988; assay type: cell-based; settings: IFO3988
[3] = test system: Salmonella typhimurium IFO 12529; assay: Antimicrobial spectrum (MIC), Salmonella typhimurium IFO 12529; assay type: cell-based; settings: Salmonella enterica
[4] = test system: Staphylococcus aureus FDA 209P; assay: Antimicrobial spectrum (MIC), Staphylococcus aureus FDA 209P; assay type: cell-based; settings: FDA209P
beta-Lactamase [5] = target: T1, beta-Lactamase (Staphylococcus aureus, UniProt P00807); assay: beta-Lactamase-inhibitory activity, producing strain Staphylococcus aureus 1840; assay type: biochemical; settings: read-out: beta-Lactamase-inhibitory activity [1D50] (converted)
T1 construct: endogenous in cells; host or cells: Staphylococcus aureus 1840 (producing strain)

beta-Lactamase [6] = assay: beta-Lactamase-inhibitory activity, producing strain Escherichia coli TN 713; assay type: biochemical
beta-Lactamase [7] = target: T2, beta-Lactamase (Enterobacter cloacae, UniProt P05364); assay: beta-Lactamase-inhibitory activity, producing strain Enterobacter cloacae TN 1282; assay type: biochemical; settings: read-out: beta-Lactamase-inhibitory activity [1D50] (converted)
T2 construct: endogenous in cells; host or cells: Enterobacter cloacae TN 1282 (producing strain)

beta-Lactamase [8] = assay: beta-Lactamase-inhibitory activity, producing strain Proteus vulgaris GN 4413; assay type: biochemical
[9] = Proteus vulgaris IFO 3988, read-out: MIC

T1 sequence (P00807 25-281): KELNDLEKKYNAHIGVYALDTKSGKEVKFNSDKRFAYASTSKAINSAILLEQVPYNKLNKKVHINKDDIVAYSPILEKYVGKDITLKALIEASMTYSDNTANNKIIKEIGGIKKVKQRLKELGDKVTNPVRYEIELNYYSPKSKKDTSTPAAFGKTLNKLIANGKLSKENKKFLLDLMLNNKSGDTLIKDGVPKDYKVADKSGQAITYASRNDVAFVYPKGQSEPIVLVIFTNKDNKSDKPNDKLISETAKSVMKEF
T2 sequence (P05364 21-381): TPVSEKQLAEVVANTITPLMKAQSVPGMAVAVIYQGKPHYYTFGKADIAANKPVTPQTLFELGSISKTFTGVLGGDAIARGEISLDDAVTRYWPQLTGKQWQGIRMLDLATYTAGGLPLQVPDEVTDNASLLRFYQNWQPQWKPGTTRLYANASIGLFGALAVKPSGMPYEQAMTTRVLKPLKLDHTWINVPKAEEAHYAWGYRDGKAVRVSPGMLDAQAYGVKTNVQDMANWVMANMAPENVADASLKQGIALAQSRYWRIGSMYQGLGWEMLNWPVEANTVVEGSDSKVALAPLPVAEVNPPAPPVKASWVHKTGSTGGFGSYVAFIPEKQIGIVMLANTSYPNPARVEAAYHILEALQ

SMILES	MIC [1] [µg/mL]	MIC [2, 9] [µg/mL]	MIC [3] [µg/mL]	MIC [4] [µg/mL]	IC50 (beta-Lactamase [5]) [nM]	beta-Lactamase-inhibitory activity [1D50] (beta-Lactamase [6]) [µg/mL]	IC50 (beta-Lactamase [7]) [nM]	beta-Lactamase-inhibitory activity [1D50] (beta-Lactamase [8]) [µg/mL]	MIC ([2]; Proteus vulgaris) [µg/mL]
CC(=O)N/C=C\[S@@+]([O-])C1=C(C(=O)O)N2C(=O)[C@@H](C(C)(C)OS(=O)(=O)O)[C@H]2C1 [Ib, [5R, 6R]-3-[(Z)-2-acetamidoethenyl-(R)-sulfinyl]-6-(1-hydroxysulfonyloxy-1-methylethyl)-7-oxo-1-azabicyclo (3,2,0)-hept-2-ene-2-carboxylic acid disodium salt]	20	40	20	2.5	568	0.0001175	36	0.00055	
CC(=O)N/C=C\[S@@+]([O-])C1=C(C(=O)[O-])N2C(=O)[C@@H](C(C)(C)O)[C@H]2C1.[Na+] [Ia, sodium [5R, 6R]-3-[(Z)-2-acetamidoethenyl-(R)-sulfinyl]-6-[1-hydroxy-1-methylethyl]-7-oxo-1-azabicyclo(3,2,0)-hept-2-ene-2-carboxylate]				0.39	151	0.0016	13.7	0.00105	
CC(=O)N/C=C\SC1=C(C(=O)O)N2C(=O)[C@@H](C(C)(C)OS(=O)(=O)O)[C@H]2C1 [Ih, [5R, 6R]-3-[(Z)-2-acetamidoethenyl-thio]-6-[1-hydroxysulfonyloxy-1-methyl-ethyl]-7-oxo-1-azabicyclo(3,2,0)-hept-2-ene-2-carboxylic acid disodium salt]	40	< 40	20	2.5	2460	0.017	7.87	0.0038	
CC(=O)N/C=C\SC1=C(C(=O)[O-])N2C(=O)[C@@H](C(C)(C)O)[C@H]2C1.[Na+] [Ig, sodium [5R, 6R]-3-[(Z)-2-acetamidoethenyl-thio]-6-[1-hydroxy-1-methyl-ethyl]-7-oxo-1-azabicyclo(3,2,0)-hept-2-ene-2-carboxylate]	2.5		2.5	0.625		0.010	86.1	0.017	5
